The values that follow are results of earlier work, collected in patent publication US20190357582A1, “Methods For Inducing Adipocyte Browning, Improving Metabolic Flexibility, And Reducing Detrimental White Adipose Tissue Deposition And Dysfunction” (MEAD JOHNSON NUTRITION COMPANY, priority 2017, published 2019).

The data set deals with UCP1. Conditions: positive control for browning.

For the molecule `COc1ccc2c(c1)[nH]c1c(C)nccc12` [Harmine], the browning activity entry is “browning activity”.
